These results are taken from US20240246940A1, “HETEROARYL DERIVATIVE COMPOUND AND USE THEREOF” (VORONOI INC., priority 2021, published 2024).

Experiment [1] deals with SK-BR-3 cells (HER2 overexpressing cell line). Briefly: SK-BR-3 cell proliferation inhibitory activity (CellTiter-Glo, 120 hours). It is filed as cell-based. Particulars: Homo sapiens. In a few lines: (§1)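 Cells seeded 24 h (HaCaT 3000/well, N-87 5000/well) or 48 h (SK-BR-3, BT-474 5000/well) before 11-point dosing: 0.2 nM–10 μM (SK-BR-3, BT-474), […]–5 μM (N-87), 0.8 nM–45 μM (HaCaT). CellTiter-Glo luminescence read; GI50 from growth relative to control, triplicate.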
In general terms: ATP-based viability assays read luminescence as a measure of living cells.

The test system of experiment [2] is HaCaT cells (EGFR expressing cell line). Briefly: HaCaT cell proliferation inhibitory activity (CellTiter-Glo, 72 hours). The experiment is classed as cell-based. Conditions: Homo sapiens. In outline: as §1

`C=CC(=O)N1CC(Oc2cc3c(Nc4cc(-c5cccc(F)c5)ccc4OC)ncnc3cc2OC)C1` [Example 8, 1-(3-((4-((3′-fluoro-4-methoxy-[1,1′-biphenyl]-3-yl)amino)-7-methoxy-quinazolin-6-yl)oxy)azetidin-1-yl)prop-2-en-1-one]: the GI50 in experiment [1] and in experiment [2] was at most 150 nM throughout.

On to `C=CC(=O)Nc1cc2c(Nc3cc(-c4ccco4)ccc3OC)ncnc2cc1OCCN1CCOCC1` [Example 271, N-(4-((5-(furan-2-yl)-2-methoxyphenyl)amino)-7-(2-morpholinoethoxy)quinazolin-6-yl)acrylamide], for which the GI50 in experiment [1] and in experiment [2] was at most 150 nM throughout.

On to `C=CC(=O)N1CCC(F)(F)C(Oc2cc3c(Nc4cc(-c5ccc(F)cc5F)ccc4OC)ncnc3cc2OC)C1` (stereo not shown) [Example 141, 1-(3-((4-((2′,4′-difluoro-4-methoxy-[1,1′-biphenyl]-3-yl)amino)-7-methoxy-quinazolin-6-yl)oxy)-4,4-difluoro-piperidin-1-yl)prop-2-en-1-one], for which the GI50 (usually the concentration giving 50% growth inhibition) in experiment [1] was above 1000 nM; in experiment [2], 150 to 1000 nM.

As to `C=CC(=O)N1CC(Oc2cc3c(Nc4cc(-c5cccs5)ccc4OC4CCOCC4)ncnc3cc2OC)C1` [Example 248, 1-(3-((7-methoxy-4-((2-((tetrahydro-2H-pyran-4-yl)oxy)-5-(thiophen-2-yl)phenyl)amino)quinazolin-6-yl)oxy)azetidin-1-yl)prop-2-en-1-one], the GI50 in experiment [1] and in experiment [2] was at most 150 nM each time.

Turning to `C=CC(=O)N1CCC(Oc2cc3c(Nc4cc(-c5cnoc5)ccc4OC)ncnc3cc2OC)CC1` [Example 85, 1-(4-((4-((5-(isoxazol-4-yl)-2-methoxyphenyl)amino)-7-methoxy-quinazolin-6-yl)oxy)piperidin-1-yl)prop-2-en-1-one], the GI50 in experiment [1] and in experiment [2] was at most 150 nM each time.

As for `C=CC(=O)N1CC(Oc2cc3c(Nc4cc(-c5ccco5)ccc4OC4CCOCC4)ncnc3cc2OC)C1` [Example 249, 1-(3-((4-((5-(furan-2-yl)-2-((tetrahydro-2H-pyran-4-yl)oxy)phenyl)amino)-7-methoxyquinazolin-6-yl)oxy)azetidin-1-yl)prop-2-en-1-one], the GI50 in experiment [1] was 150 to 1000 nM; in experiment [2], at most 150 nM.

For the compound `C=CC(=O)N1CC(Oc2cc3c(Nc4cc(-c5ccc(F)c(C#N)c5)ccc4OC)ncnc3cc2OC)C1` [Example 14, 3′-((6-((1-acryloylazetidin-3-yl)oxy)-7-methoxy-quinazolin-4-yl)amino)-4-fluoro-4′-methoxy-[1,1′-biphenyl]-3-carbonitrile], the GI50 in experiment [1] and in experiment [2] was at most 150 nM each time.

For `C=CC(=O)N1CCC(Oc2cc3c(Nc4cc(-c5ccc6occc6c5)ccc4OC)ncnc3cc2OC)CC1` [Example 71, 1-(4-((4-((5-(benzofuran-5-yl)-2-methoxyphenyl)amino)-7-methoxy-quinazolin-6-yl)oxy)piperidin-1-yl)prop-2-en-1-one], the GI50 in experiment [1] was 150 to 1000 nM; in experiment [2], above 1000 nM.

On to `C=CC(=O)N1CCC(Oc2cc3c(Nc4cc(-c5ccc(F)nc5)ccc4OC)ncnc3cc2OC)CC1` [Example 133, 1-(4-((4-((5-(6-fluoropyridin-3-yl)-2-methoxyphenyl)amino)-7-methoxy-quinazolin-6-yl)oxy)piperidin-1-yl)prop-2-en-1-one], for which the GI50 in experiment [1] and in experiment [2] was 150 to 1000 nM throughout.

Regarding `C=CC(=O)N1CC(Oc2cc3c(Nc4cc(-c5ccco5)ccc4OCC)ncnc3cc2OC)C1` [Example 55, 1-(3-((4-((2-ethoxy-5-(furan-2-yl)phenyl)amino)-7-methoxy-quinazolin-6-yl)oxy)azetidin-1-yl)prop-2-en-1-one], the GI50 in experiment [1] and in experiment [2] was at most 150 nM each time.

On to `C=CC(=O)N1CC(Oc2cc3c(Nc4cc(-c5cccc(C(F)(F)F)c5)ccc4OC)ncnc3cc2OC)C1` [Example 9, 1-(3-((7-methoxy-4-((4-methoxy-3′-(trifluoromethyl)-[1,1′-biphenyl]-3-yl)amino)quinazolin-6-yl)oxy)azetidin-1-yl)prop-2-en-1-one], for which the GI50 in experiment [1] and in experiment [2] was 150 to 1000 nM in each case.

On to `C=CC(=O)N1CCC(Oc2cc3c(Nc4cc(-c5ccc(F)nc5F)ccc4OC)ncnc3cc2OC)CC1` [Example 147, 1-(4-((4-((5-(2,6-difluoropyridin-3-yl)-2-methoxyphenyl)amino)-7-methoxy-quinazolin-6-yl)oxy)piperidin-1-yl)prop-2-en-1-one], for which the GI50 in experiment [1] and in experiment [2] was 150 to 1000 nM throughout.

As for `C=CC(=O)N1CCC(Nc2cc3c(Nc4cc(-c5ccc(F)cc5F)ccc4OC)ncnc3cc2OCCCN2CCOCC2)CC1` [Example 269, 1-(4-((4-((2′,4′-difluoro-4-methoxy-[1,1′-biphenyl]-3-yl)amino)-7-(3-morpholinopropoxy)quinazolin-6-yl)amino)piperidin-1-yl)prop-2-en-1-one], the GI50 in experiment [1] and in experiment [2] was at most 150 nM throughout.

Consider `C=CC(=O)N1CCC(Oc2cc3c(Nc4cc(-c5ccco5)ccc4OC4CCN(C)C4)ncnc3cc2OC)CC1` (stereo not shown) [Example 251, 1-(4-((4-((5-(furan-2-yl)-2-((1-methylpyrrolidin-3-yl)oxy)phenyl)amino)-7-methoxyquinazolin-6-yl)oxy)piperidin-1-yl)prop-2-en-1-one], for which the GI50 in experiment [1] and in experiment [2] was at most 150 nM throughout.

As for `C=CC(=O)N1CCC(Oc2cc3c(Nc4cc(-c5ccco5)c(C)cc4OC)ncnc3cc2OC)CC1` [Example 96, 1-(4-((4-((5-(furan-2-yl)-2-methoxy-4-methylphenyl)amino)-7-methoxy-quinazolin-6-yl)oxy)piperidin-1-yl)prop-2-en-1-one], the 50% growth inhibitory concentration (GI50) was 150 to 1000 nM in experiment [1] and at most 150 nM in experiment [2].

Regarding `C=CC(=O)Nc1cc2c(Nc3cc(-c4ccoc4C)ccc3OC)ncnc2cc1OC` [Example 290, N-(7-methoxy-4-((2-methoxy-5-(2-methylfuran-3-yl)phenyl)amino)quinazolin-6-yl)acrylamide], the GI50 in experiment [1] was 150 to 1000 nM; in experiment [2], at most 150 nM.

For the compound `C=CC(=O)N1CCC(Oc2cc3c(Nc4cc(-c5sccc5C)ccc4OC)ncnc3cc2OC)CC1` [Example 82, 1-(4-((7-methoxy-4-((2-methoxy-5-(3-methylthiophen-2-yl)phenyl)amino)quinazolin-6-yl)oxy)piperidin-1-yl)prop-2-en-1-one], the GI50 in experiment [1] and in experiment [2] was at most 150 nM in each case.

`C=CC(=O)N1CCC(Nc2cc3c(Nc4cc(-c5ccco5)ccc4OC)ncnc3cc2OCCN2CCOCC2)CC1` [Example 272, 1-(4-((4-((5-(furan-2-yl)-2-methoxyphenyl)amino)-7-(2-morpholinoethoxy)quinazolin-6-yl)amino)piperidin-1-yl)prop-2-en-1-one]: the GI50 in experiment [1] and in experiment [2] was at most 150 nM throughout.

On to `C=CC(=O)N1CCC(Oc2cc3c(Nc4cc(-c5ccncc5)ccc4OC)ncnc3cc2OC)CC1` [Example 149, 1-(4-((7-methoxy-4-((2-methoxy-5-(pyridin-4-yl)phenyl)amino)quinazolin-6-yl)oxy)piperidin-1-yl)prop-2-en-1-one], for which the GI50 in experiment [1] and in experiment [2] was 150 to 1000 nM each time.

Take `C=CC(=O)N1CC(Oc2cc3c(Nc4cc(-c5cnn6cccnc56)ccc4OC)ncnc3cc2OC)C1` [Example 39, 1-(3-((7-methoxy-4-((2-methoxy-5-(pyrazolo[1,5-a]pyrimidin-3-yl)phenyl)amino)quinazolin-6-yl)oxy)azetidin-1-yl)prop-2-en-1-one]: the GI50 in experiment [1] and in experiment [2] was 150 to 1000 nM each time.

Consider `C=CC(=O)N1CC(Oc2cc3c(Nc4cc(-c5coc6ccccc56)ccc4OC)ncnc3cc2OC)C1` [Example 40, 1-(3-((4-((5-(benzofuran-3-yl)-2-methoxyphenyl)amino)-7-methoxy-quinazolin-6-yl)oxy)azetidin-1-yl)prop-2-en-1-one], for which the GI50 in experiment [1] was 150 to 1000 nM; in experiment [2], at most 150 nM.

For the compound `C=CC(=O)N1CC2(C1)CN(c1cc3c(Nc4cc(-c5ccco5)ccc4OC)ncnc3cc1OC)C(=O)O2` [Example 330, 2-acryloyl-7-(4-((5-(furan-2-yl)-2-methoxyphenyl)amino)-7-methoxyquinazolin-6-yl)-5-oxa-2,7-diazaspiro[3.4]octan-6-one], the GI50 in experiment [1] and in experiment [2] was 150 to 1000 nM each time.

Regarding `C=CC(=O)N1CCC(Oc2cc3c(Nc4cc(-c5ccoc5C)ccc4OC)ncnc3cc2OC)CC1` [Example 84, 1-(4-((7-methoxy-4-((2-methoxy-5-(2-methylfuran-3-yl)phenyl)amino)quinazolin-6-yl)oxy)piperidin-1-yl)prop-2-en-1-one], the concentration for 50% growth inhibition (GI50) in experiment [1] and in experiment [2] was at most 150 nM throughout.

As for `C=CC(=O)N1CCC(Nc2cc3c(Nc4cc(-c5ccco5)ccc4OC)ncnc3cc2O[C@@H]2CCOC2)CC1` [Example 280, (R)-1-(4-((4-((5-(furan-2-yl)-2-methoxyphenyl)amino)-7-((tetrahydrofuran-3-yl)oxy)quinazolin-6-yl)amino)piperidin-1-yl)prop-2-en-1-one], the GI50 in experiment [1] and in experiment [2] was at most 150 nM each time.

As to `C=CC(=O)N1CCC(Oc2cc3c(Nc4cc(-c5cccnc5)ccc4OC)ncnc3cc2OC)CC1` [Example 66, 1-(4-((7-methoxy-4-((2-methoxy-5-(pyridin-3-yl)phenyl)amino)quinazolin-6-yl)oxy)piperidin-1-yl)prop-2-en-1-one], the GI50 in experiment [1] and in experiment [2] was 150 to 1000 nM in each case.

On to `C=CC(=O)N1CC(Oc2cc3c(Nc4cc(-c5cccc(NC(=O)N6C(=O)OC[C@H]6c6ccccc6)c5)ccc4OC)ncnc3cc2OC)C1` [Example 236, (R)-N-(3′-((6-((1-acryloylazetidin-3-yl)oxy)-7-methoxyquinazolin-4-yl)amino)-4′-methoxy-[1,1′-biphenyl]-3-yl)-2-oxo-4-phenyloxazolidin-3-carboxamide], for which the GI50 in experiment [1] was 150 to 1000 nM; in experiment [2], above 1000 nM.
